Measured values published in PubChem BioAssay AID330 (DTP/NCI, 2004).
Several values for one entry are separate records, joined by “and”; a condition that tells them apart may be missing. Identical values can stand only once. Toxic doses and inconclusive results are not listed. The calls were made as follows: active = survival T/C of 150% or more; inactive = T/C below 125% in these data.

System: P388 leukemia ip, CD2F1 mice, survival T/C
Test: NCI In Vivo Anticancer Drug Screen. Data for tumor model P388 Leukemia (intraperitoneal) in CD2F1 (CDF1) mice
Settings: endpoint: median survival time, higher = longer survival
How it was run: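 Mice carrying the transplanted tumor received test compound or vehicle. Survival was recorded in each group, and the value is the treated-group measurement divided by that of the vehicle-treated control group.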

[1] = dose: 50.0 mg/kg/injection, schedule: Q01DX009 (ip), vehicle: saline with Tween-80
[2] = dose: 100.0 mg/kg/injection, schedule: Q01DX009 (ip), vehicle: saline with Tween-80
[3] = dose: 50.0 mg/kg/injection, schedule: Q01DX009 (ip), vehicle: other
[4] = dose: 50.0 mg/kg/injection, schedule: Q01DX005 (ip), vehicle: Klucel (hydroxypropylcellulose) (HPC)
[5] = dose: 100.0 mg/kg/injection, schedule: Q01DX005 (ip), vehicle: Klucel (hydroxypropylcellulose) (HPC)
[6] = dose: 200.0 mg/kg/injection, schedule: Q01DX005 (ip), vehicle: Klucel (hydroxypropylcellulose) (HPC)
[7] = dose: 60.0 mg/kg/injection, schedule: Q01DX005 (ip), vehicle: saline with Tween-80
[8] = dose: 120.0 mg/kg/injection, schedule: Q01DX005 (ip), vehicle: saline with Tween-80
[9] = dose: 240.0 mg/kg/injection, schedule: Q01DX005 (ip), vehicle: saline with Tween-80
[10] = dose: 12.5 mg/kg/injection, schedule: Q01DX009 (ip), vehicle: other
[11] = dose: 25.0 mg/kg/injection, schedule: Q01DX009 (ip), vehicle: other

Measured: T/C

CC(=O)c1ccc2c(=O)n3c4ccccc4nc3c3cccc1c23
inactive: [1] 118 % of control | [2] 104 % of control

CC(C)=CCCC(C)(OC1OC(COC2OC(CO)C(O)C2O)C(O)C(O)C1O)C1CCC2(C)C1C(O)CC1C3(C)CCC(OC4OC(CO)C(O)C(O)C4OC4OC(CO)C(O)C(O)C4O)C(C)(C)C3CCC12C (centres undefined)
inactive: dose: 2.0 mg/kg/injection, schedule: Q01DX009 (ip), vehicle: Klucel (hydroxypropylcellulose) (HPC) 88 % of control | dose: 4.0 mg/kg/injection, schedule: Q01DX009 (ip), vehicle: Klucel (hydroxypropylcellulose) (HPC) 95 % of control | dose: 8.0 mg/kg/injection, schedule: Q01DX009 (ip), vehicle: Klucel (hydroxypropylcellulose) (HPC) 104 % of control | dose: 16.0 mg/kg/injection, schedule: Q01DX009 (ip), vehicle: Klucel (hydroxypropylcellulose) (HPC) 114 % of control | dose: 32.0 mg/kg/injection, schedule: Q01DX009 (ip), vehicle: Klucel (hydroxypropylcellulose) (HPC) 98 % of control

O=C(c1cc2c(cc1Br)OCO2)N1CCc2ccccc21
inactive: [3] 93 % of control | dose: 100.0 mg/kg/injection, schedule: Q01DX009 (ip), vehicle: other 105 % of control | dose: 200.0 mg/kg/injection, schedule: Q01DX009 (ip), vehicle: other 109 % of control

Cc1nc(N)c2nonc2n1
inactive: dose: 25.0 mg/kg/injection, schedule: Q04DX003 (ip), vehicle: suspension in saline 98 % of control | dose: 50.0 mg/kg/injection, schedule: Q04DX003 (ip), vehicle: suspension in saline 103 % of control | dose: 100.0 mg/kg/injection, schedule: Q04DX003 (ip), vehicle: suspension in saline 94 % of control | dose: 200.0 mg/kg/injection, schedule: Q04DX003 (ip), vehicle: suspension in saline 95 % of control

COc1c(NC=O)c2c(c([N+](=O)[O-])c1OC)C(=O)OC2
inactive: [4] 102 % of control | [5] 99 % of control | [6] 98 % of control

CCN(CC)C(=O)N1C=CC(c2ccccc2)C=C1
inactive: [7] 103 % of control | [8] 106 % of control | [9] 108 % of control

COc1cccc2c1C(=O)c1c(O)c3c(c(O)c1C2=O)CC(O)(C(=O)COc1ccccc1)CC3O (centres undefined)
inactive: dose: 1.56 mg/kg/injection, schedule: Q01DX009 (ip), vehicle: other 108 % of control | dose: 3.13 mg/kg/injection, schedule: Q01DX009 (ip), vehicle: other 106 % of control | dose: 6.25 mg/kg/injection, schedule: Q01DX009 (ip), vehicle: other 105 % of control | [10] 97 % of control | [11] 91 % of control

CN(C)CCC=C1c2ccccc2CCc2ccccc21
inactive: dose: 12.5 mg/kg/injection, schedule: Q01DX005 (ip), vehicle: saline 101 % of control | dose: 25.0 mg/kg/injection, schedule: Q01DX005 (ip), vehicle: saline 103 % of control | dose: 50.0 mg/kg/injection, schedule: Q01DX005 (ip), vehicle: saline 109 % of control and 116 % of control

O=C1c2cccc3cccc(c23)C(=O)N1CCNCCN1C(=O)c2cccc3cccc(c23)C1=O
inactive: [7] 91 % of control | [9] 88 % of control

N#CCc1ccc(Cl)c(Cl)c1
inactive: dose: 6.25 mg/kg/injection, schedule: Q01DX009 (ip), vehicle: saline with Tween-80 104 % of control | dose: 12.5 mg/kg/injection, schedule: Q01DX009 (ip), vehicle: saline with Tween-80 100 % of control | dose: 12.5 mg/kg/injection, schedule: Q04DX003 (ip), vehicle: saline with Tween-80 100 % of control | dose: 25.0 mg/kg/injection, schedule: Q01DX009 (ip), vehicle: saline with Tween-80 100 % of control | dose: 25.0 mg/kg/injection, schedule: Q04DX003 (ip), vehicle: saline with Tween-80 100 % of control

C=C1C(=O)C(CCC)=C(CC)C1O (centres undefined)
inactive: [7] 105 % of control

CCC(C)N(C(=O)c1ccccc1)c1ccccc1 (centres undefined)
inactive: [10] 99 % of control and 106 % of control | dose: 12.5 mg/kg/injection, schedule: Q01DX009 (ip), vehicle: saline + Tween-80 + alcohol 101 % of control | [11] 100 % of control and 102 % of control | dose: 25.0 mg/kg/injection, schedule: Q01DX009 (ip), vehicle: saline + Tween-80 + alcohol 104 % of control | [3] 102 % of control | dose: 50.0 mg/kg/injection, schedule: Q01DX009 (ip), vehicle: saline + Tween-80 + alcohol 106 % of control

C=C(C)c1nc(N)nc(NC)n1
inactive: dose: 100.0 mg/kg/injection, schedule: Q04DX002 (ip), vehicle: Klucel (hydroxypropylcellulose) (HPC) 98 % of control | dose: 200.0 mg/kg/injection, schedule: Q04DX002 (ip), vehicle: Klucel (hydroxypropylcellulose) (HPC) 107 % of control | dose: 400.0 mg/kg/injection, schedule: Q04DX002 (ip), vehicle: Klucel (hydroxypropylcellulose) (HPC) 98 % of control

CC(=O)[O][Sn]([c]1ccccc1)([c]1ccccc1)[c]1ccccc1
inactive: dose: 0.25 mg/kg/injection, schedule: Q04DX003 (ip), vehicle: saline with Tween-80 104 % of control | dose: 0.5 mg/kg/injection, schedule: Q04DX003 (ip), vehicle: saline with Tween-80 109 % of control | dose: 125.0 micrograms/kg/injection, schedule: Q01DX009 (ip), vehicle: saline with Tween-80 100 % of control | dose: 250.0 micrograms/kg/injection, schedule: Q01DX009 (ip), vehicle: saline with Tween-80 109 % of control | dose: 500.0 micrograms/kg/injection, schedule: Q01DX009 (ip), vehicle: saline with Tween-80 109 % of control

O=C(NCCN1C(=O)C2C3CCC(O3)C2C1=O)Nc1ccc([N+](=O)[O-])cc1[N+](=O)[O-] (centres undefined)
inactive: [7] 91 % of control | [8] 91 % of control

c1cncc(-c2cc(-c3cc(-c4cccnc4)n[nH]3)[nH]n2)c1
inactive: dose: 60.0 mg/kg/injection, schedule: Q01DX005 (ip), vehicle: Klucel (hydroxypropylcellulose) (HPC) 103 % of control | dose: 120.0 mg/kg/injection, schedule: Q01DX005 (ip), vehicle: Klucel (hydroxypropylcellulose) (HPC) 103 % of control | dose: 240.0 mg/kg/injection, schedule: Q01DX005 (ip), vehicle: Klucel (hydroxypropylcellulose) (HPC) 91 % of control

CCOC(=O)c1ccc(NC(=O)N2CC(C)OC(C)C2)cc1 (centres undefined)
inactive: [1] 87 % of control | [2] 97 % of control | dose: 200.0 mg/kg/injection, schedule: Q01DX009 (ip), vehicle: saline with Tween-80 97 % of control

C/C=C(\C)C(=O)OC1CC(C)(C)C2C3C(=O)C=C(C)C2C3(C)C1OC(=O)/C(C)=C/C (centres undefined)
inactive: dose: 75.0 mg/kg/injection, schedule: Q01DX001 (ip), vehicle: Klucel (hydroxypropylcellulose) (HPC) 97 % of control | dose: 150.0 mg/kg/injection, schedule: Q01DX001 (ip), vehicle: Klucel (hydroxypropylcellulose) (HPC) 98 % of control | dose: 300.0 mg/kg/injection, schedule: Q01DX001 (ip), vehicle: Klucel (hydroxypropylcellulose) (HPC) 101 % of control

Nc1cc(=O)n2cn[nH]c2n1
inactive: dose: 100.0 mg/kg/injection, schedule: Q04DX002 (ip), vehicle: saline with Tween-80 100 % of control | dose: 200.0 mg/kg/injection, schedule: Q04DX002 (ip), vehicle: saline with Tween-80 103 % of control | dose: 400.0 mg/kg/injection, schedule: Q04DX002 (ip), vehicle: saline with Tween-80 103 % of control

CC1CCCC2=C1C(O)c1cccc(N)c1C2O (centres undefined)
inactive: [4] 102 % of control | [5] 96 % of control | [6] 88 % of control

Cc1csc(/N=C2\N/C(=N\c3nc(C)cs3)c3ccccc32)n1
inactive: [1] 88 % of control | [2] 86 % of control
